Experimental data taken from patent US20250059174A1, “Pharmaceutical Compounds and Compositions as C-Kit Kinase Inhibitors” (Enanta Pharmaceuticals, Inc., priority 2023, published 2025).

What was measured:
[1] = biological target: Recombinant human c-KIT kinase (Homo sapiens (Human), UniProt P10721); assay: c-KIT kinase chemiluminescence assay (ADP-Glo); assay type: biochemical; settings: ATP 50 μM
Method in brief: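 ADP formed by c-KIT on polyEY over 2 h at RT (after 30 min enzyme preincubation; Tris pH 7.5, MgCl2, BSA, DTT buffer) was detected by ADP-Glo luminescence. IC50 and Hill slope were fitted to control-normalized activity across compound concentrations.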

[2] = system: M-07e cells; assay: M-07e cellular assay (SCF-mediated cell proliferation); assay type: cell-based; settings: Homo sapiens, 72 hours, CellTiter Glo
Method in brief: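 EC50 values reflect inhibition of SCF-driven proliferation, with SCF at EC90 and a 72 h compound exposure, measured as CellTiter Glo luminescence. Growth is scaled between no-SCF (0%) and untreated (100%) wells.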

Recombinant human c-KIT kinase, sequence (P10721 26-976): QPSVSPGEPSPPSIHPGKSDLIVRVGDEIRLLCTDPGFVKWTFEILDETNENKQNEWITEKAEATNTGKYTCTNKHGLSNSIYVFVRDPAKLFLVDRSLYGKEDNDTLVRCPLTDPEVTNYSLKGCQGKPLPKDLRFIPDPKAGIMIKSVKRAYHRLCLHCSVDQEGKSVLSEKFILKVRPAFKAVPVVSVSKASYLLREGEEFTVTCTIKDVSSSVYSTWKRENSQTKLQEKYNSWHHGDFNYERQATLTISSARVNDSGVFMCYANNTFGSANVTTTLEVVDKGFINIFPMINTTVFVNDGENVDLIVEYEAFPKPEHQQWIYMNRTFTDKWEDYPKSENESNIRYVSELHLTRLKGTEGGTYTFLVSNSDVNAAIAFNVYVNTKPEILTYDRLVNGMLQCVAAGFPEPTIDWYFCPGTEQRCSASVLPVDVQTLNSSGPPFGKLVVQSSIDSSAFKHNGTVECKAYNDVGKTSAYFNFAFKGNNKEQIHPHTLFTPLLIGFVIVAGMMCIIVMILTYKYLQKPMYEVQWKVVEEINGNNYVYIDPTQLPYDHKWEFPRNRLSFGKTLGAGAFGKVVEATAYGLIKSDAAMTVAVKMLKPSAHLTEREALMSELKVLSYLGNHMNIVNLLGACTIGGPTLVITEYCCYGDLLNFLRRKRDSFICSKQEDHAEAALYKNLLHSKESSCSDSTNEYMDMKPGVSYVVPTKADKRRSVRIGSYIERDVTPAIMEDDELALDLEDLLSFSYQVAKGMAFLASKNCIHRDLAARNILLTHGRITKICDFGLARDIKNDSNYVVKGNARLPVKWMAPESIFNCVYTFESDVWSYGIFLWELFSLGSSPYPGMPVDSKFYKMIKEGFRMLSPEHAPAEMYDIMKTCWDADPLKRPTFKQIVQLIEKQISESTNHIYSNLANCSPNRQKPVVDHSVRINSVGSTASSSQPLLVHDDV

Compound	IC50 [1] [µM]	EC50 [2] [µM]
Cc1ccc(-c2noc([C@H]3C[C@@H]3F)n2)cc1NC(=O)c1cnn2ccc(-c3cc(C(F)(F)F)nn3C)cc12 [Example 171-22]	0.1 to 1	0.1 to 1
Cc1ccc(-c2noc([C@H]3C[C@@H]3F)n2)cc1NC(=O)c1cnn2ccc(-c3cc(C(F)(F)F)nn3C(C)C)cc12 [Example 171-23]	> 1	> 1
CC(=O)Nc1nc(C)c(-c2ccn3ncc(C(=O)Nc4cc(-c5noc([C@H]6C[C@@H]6F)n5)ccc4C)c3c2)c(C)n1 [Example 171-31]	0.1 to 1	< 0.1
Cc1ccc(-c2noc([C@H]3C[C@@H]3F)n2)cc1NC(=O)c1cnn2ccc(N3CC4(C3)CS(=O)(=O)C4)cc12 [Example 187]	< 0.1	< 0.1
Cc1ccc(-c2noc([C@H]3C[C@@H]3F)n2)cc1NC(=O)c1cnn2ccc(N3CC4(CCN(CC(F)(F)F)C4)C3)cc12 [Example 188]	0.1 to 1	0.1 to 1
Cc1ccc(-c2noc([C@H]3C[C@@H]3F)n2)cc1NC(=O)c1cnn2ccc(N3C4COCC3C4)cc12 [Example 189]	< 0.1	< 0.1
Cc1ccc(-c2noc([C@H]3C[C@@H]3F)n2)cc1NC(=O)c1cnn2ccc(N3CCN(C(=O)OC(C)(C)C)C[C@H]3C)cc12 [Example 190]	0.1 to 1	0.1 to 1
Cc1ccc(-c2noc([C@H]3C[C@@H]3F)n2)cc1NC(=O)c1cnn2ccc(N3CCN(C(=O)OC(C)(C)C)C[C@@H]3C)cc12 [Example 191]	< 0.1	< 0.1
Cc1ccc(-c2noc([C@H]3C[C@@H]3F)n2)cc1NC(=O)c1cnn2ccc(N3CC[C@@H](NC(=O)OC(C)(C)C)C3)cc12 [Example 192]	0.1 to 1	0.1 to 1
Cc1ccc(-c2noc([C@H]3C[C@@H]3F)n2)cc1NC(=O)c1cnn2ccc(N3CC[C@H](NC(=O)OC(C)(C)C)C3)cc12 [Example 193]	0.1 to 1	0.1 to 1
Cc1ccc(-c2noc([C@H]3C[C@@H]3F)n2)cc1NC(=O)c1cnn2ccc(N3CC4CC(C3)O4)cc12 [Example 194]	< 0.1	< 0.1
Cc1ccc(-c2noc([C@H]3C[C@@H]3F)n2)cc1NC(=O)c1cnn2ccc(N3CCNC[C@H]3C)cc12 [Example 195]	< 0.1	0.1 to 1
Cc1ccc(-c2noc([C@H]3C[C@@H]3F)n2)cc1NC(=O)c1cnn2ccc(N3CCNC[C@@H]3C)cc12 [Example 196]	< 0.1	< 0.1
Cc1ccc(-c2noc([C@H]3C[C@@H]3F)n2)cc1NC(=O)c1cnn2ccc(N3CC[C@@H](N)C3)cc12 [Example 197]	0.1 to 1	< 0.1
Cc1ccc(-c2noc([C@H]3C[C@@H]3F)n2)cc1NC(=O)c1cnn2ccc(N3CC[C@H](N)C3)cc12 [Example 198]	< 0.1	0.1 to 1
Cc1ccc(-c2noc([C@H]3C[C@@H]3F)n2)cc1NC(=O)c1cnn2ccc(N3C[C@H]4C[C@@H]3CO4)cc12 [Example 199]	< 0.1	< 0.1
Cc1ccc(-c2noc([C@H]3C[C@@H]3F)n2)cc1NC(=O)c1cnn2ccc(N3C[C@@H]4C[C@H]3CO4)cc12 [Example 200]	< 0.1	< 0.1
Cc1ccc(-c2noc([C@H]3C[C@@H]3F)n2)cc1NC(=O)c1cnn2ccc(N3CCCC4(COC4)C3)cc12 [Example 201]	< 0.1	< 0.1
Cc1ccc(-c2noc([C@H]3C[C@@H]3F)n2)cc1NC(=O)c1cnn2ccc(N3CC4(CN(C)C4)C3)cc12 [Example 202]	0.1 to 1	0.1 to 1
Cc1ccc(-c2noc([C@H]3C[C@@H]3F)n2)cc1NC(=O)c1cnn2ccc(N3CC[C@H](N(C)C(=O)OC(C)(C)C)C3)cc12 [Example 203]	< 0.1	0.1 to 1
Cc1ccc(-c2noc([C@H]3C[C@@H]3F)n2)cc1NC(=O)c1cnn2ccc(N3C4CCC3CC(O)C4)cc12 (some centres unmarked) [Example 204]	< 0.1	< 0.1
CN[C@H]1CCN(c2ccn3ncc(C(=O)Nc4cc(-c5noc([C@H]6C[C@@H]6F)n5)ccc4C)c3c2)C1 [Example 205]	< 0.1	0.1 to 1
Cc1ccc(-c2noc([C@H]3C[C@@H]3F)n2)cc1NC(=O)c1cnn2cc(F)c(N3CC4(COC4)C3)cc12 [Example 206]	0.1 to 1	0.1 to 1
Cc1ccc(-c2noc([C@H]3C[C@@H]3F)n2)cc1NC(=O)c1cnn2ccc(N3CC4(CN(C(=O)OC(C)(C)C)C4)C3)cc12 [Example 207]	< 0.1	0.1 to 1
Cc1ccc(-c2noc([C@H]3C[C@@H]3F)n2)cc1NC(=O)c1cnn2ccc(N3CC(C(=O)OC(C)(C)C)C3)cc12 [Example 208]	0.1 to 1	0.1 to 1

Further lines, with some results ahead:

IC50 [1] [µM]	Compound	EC50 [2] [µM]
< 0.1	Cc1ccc(-c2noc([C@H]3C[C@@H]3F)n2)cc1NC(=O)c1cnn2ccc(-c3cnc(N4CC(F)(F)C4)cc3C)cc12 [Example 171-24]	< 0.1
< 0.1	Cc1ccc(-c2noc([C@H]3C[C@@H]3F)n2)cc1NC(=O)c1cnn2ccc(-c3cnc(N4CC5(COC5)C4)cc3C)cc12 [Example 171-25]	< 0.1
< 0.1	Cc1cc(C)c(-c2ccn3ncc(C(=O)Nc4cc(-c5noc([C@H]6C[C@@H]6F)n5)ccc4C)c3c2)cn1 [Example 171-26]	< 0.1
< 0.1	Cc1ccc(-c2noc([C@H]3C[C@@H]3F)n2)cc1NC(=O)c1cnn2ccc(-c3cnc(N)cc3C)cc12 [Example 171-28]	< 0.1
< 0.1	Cc1ccc(-c2noc([C@H]3C[C@@H]3F)n2)cc1NC(=O)c1cnn2ccc(-c3ccc(N)nc3C)cc12 [Example 171-29]	< 0.1
< 0.1	Cc1cnc(-c2ccn3ncc(C(=O)Nc4cc(-c5noc([C@H]6C[C@@H]6F)n5)ccc4C)c3c2)c(C)n1 [Example 171-30]	< 0.1
< 0.1	Cc1nccc(-c2ccn3ncc(C(=O)Nc4cc(-c5noc([C@H]6C[C@@H]6F)n5)ccc4C)c3c2)n1 [Example 171]	< 0.1
< 0.1	Cc1ccc(-c2noc([C@H]3C[C@@H]3F)n2)cc1NC(=O)c1cnn2ccc(N3CCC4(COC4)C3)cc12 [Example 173]	< 0.1
< 0.1	Cc1ccc(-c2noc([C@H]3C[C@@H]3F)n2)cc1NC(=O)c1cnn2ccc(N3C[C@@H](CS(C)(=O)=O)[C@@H]3C)cc12 [Example 174]	< 0.1
< 0.1	Cc1ccc(-c2noc([C@H]3C[C@@H]3F)n2)cc1NC(=O)c1cnn2ccc(N3C[C@@H](CS(C)(=O)=O)[C@H]3C)cc12 [Example 175]	< 0.1
< 0.1	Cc1ccc(-c2noc([C@H]3C[C@@H]3F)n2)cc1NC(=O)c1cnn2ccc(N3CCC34COC4)cc12 [Example 176]	< 0.1
< 0.1	Cc1ccc(-c2noc([C@H]3C[C@@H]3F)n2)cc1NC(=O)c1cnn2ccc(N3CC4(CN(CC(F)(F)F)C4)C3)cc12 [Example 177]	< 0.1
< 0.1	Cc1ccc(-c2noc([C@H]3C[C@@H]3F)n2)cc1NC(=O)c1cnn2ccc(N3CC4(CNC(=O)C4)C3)cc12 [Example 178]	< 0.1
< 0.1	Cc1ccc(-c2noc([C@H]3C[C@@H]3F)n2)cc1NC(=O)c1cnn2ccc(N3CC(C(C)(C)O)C3)cc12 [Example 179]	< 0.1
< 0.1	Cc1ccc(-c2noc([C@H]3C[C@@H]3F)n2)cc1NC(=O)c1cnn2ccc(N3CC(O)(C(F)(F)F)C3)cc12 [Example 180]	< 0.1
< 0.1	Cc1ccc(-c2noc([C@H]3C[C@@H]3F)n2)cc1NC(=O)c1cnn2ccc(N3CC4(C3)CC(C)(O)C4)cc12 [Example 181]	< 0.1
< 0.1	Cc1ccc(-c2noc([C@H]3C[C@@H]3F)n2)cc1NC(=O)c1cnn2ccc(N3CC(CO)(CCl)C3)cc12 [Example 182]	< 0.1
< 0.1	Cc1ccc(-c2noc([C@H]3C[C@@H]3F)n2)cc1NC(=O)c1cnn2ccc(N3CC4(CCOC4)C3)cc12 [Example 183]	< 0.1
< 0.1	Cc1ccc(-c2noc([C@H]3C[C@@H]3F)n2)cc1NC(=O)c1cnn2ccc(N3CCC4(CC3)CC(C)(O)C4)cc12 [Example 184]	< 0.1
< 0.1	Cc1ccc(-c2noc([C@H]3C[C@@H]3F)n2)cc1NC(=O)c1cnn2ccc(N3CC4(CCN(CC(F)F)C4)C3)cc12 [Example 185]	< 0.1
< 0.1	COC1CC2(C1)CN(c1ccn3ncc(C(=O)Nc4cc(-c5noc([C@H]6C[C@@H]6F)n5)ccc4C)c3c1)C2 [Example 186]	< 0.1
